From patent publication US20240400555A1 (Initial Therapeutics, Inc., priority 2023, published 2024) come the findings set out here.

This experiment has as its system MV-4-11 cells. The experiment can be described thus: Cell Viability Assay in MV-4-11 Cells. It is filed as cell-based. The following applies: Homo sapiens, MV4-11, 72 h, MV-4-11 cells, 72 h, Cell-Titer Glo; read-out: IC50. The essentials:
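MV-4-11 cells at 7,000/well in IMDM with 10% FBS, exposed to compound for 72 h. Viability by CellTiter-Glo luminescence, normalized to DMSO as 100%, fitted with a four-parameter curve.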
As to `Cn1cc(-c2ccc(C(=O)N(c3nccc4sc(-c5ccsc5)cc34)[C@@H]3CCCNC3)c(F)c2)nn1` [Example 511, 2-fluoro-4-(1-methyltriazol-4-yl)-N-[(3R)-3-piperidyl]-N-[2-(3-thienyl)thieno[3,2-c]pyridin-4-yl]benzamide], the IC50 is 250 nM.

With `[2H]C([2H])([2H])Oc1cc(C)c2c(N(C(=O)c3ccc(-c4cn(CC)nn4)cc3F)[C@@H]3CCCNC3)nccc2c1` [Example 889, 4-(1-ethyltriazol-4-yl)-2-fluoro-N-[8-methyl-6-(trideuteriomethoxy)-1-isoquinolyl]-N-[(3R)-3-piperidyl]benzamide], the IC50 amounted to 41 nM.

As for `COCCCc1nnc(-c2ccc(C(=O)N(c3nccc4scc(C)c34)[C@@H]3CCCNC3)cc2)s1` [Example 876, 4-[5-(3-methoxypropyl)-1,3,4-thiadiazol-2-yl]-N-(3-methylthieno[3,2-c]pyridin-4-yl)-N-[(3R)-3-piperidyl]benzamide], the IC50 came to 290 nM.

Take `Cc1nnc(-c2ccc(C(=O)N(c3nccc4cc(Cl)cc(C)c34)[C@@H]3CCCNC3)c(Cl)c2)o1` [Example 764, (R)-2-chloro-N-(6-chloro-8-methylisoquinolin-1-yl)-4-(5-methyl-1,3,4-oxadiazol-2-yl)-N-(piperidin-3-yl)benzamide]: the IC50 was more than 7500 nM.

With `CC(C)(O)c1ccc(-c2cc3c(N(C(=O)c4ccc(-n5nnc6cccnc65)cc4F)[C@@H]4CCCNC4)nccc3s2)cc1` [Example 585, (R)-4-(3H-[1,2,3]triazolo[4,5-b]pyridin-3-yl)-2-fluoro-N-(2-(4-(2-hydroxypropan-2-yl)phenyl)thieno[3,2-c]pyridin-4-yl)-N-(piperidin-3-yl)benzamide], the IC50 amounted to 440 nM.

Turning to `Cc1cccc2ccnc(N(C(=O)c3ccc(Nc4ncnc(-c5ccccc5)n4)cc3F)[C@@H]3CCCNC3)c12` [Example 971, (R)-2-fluoro-N-(8-methylisoquinolin-1-yl)-4-(4-phenyl-1,3,5-triazin-2-ylamino)-N-(piperidin-3-yl)benzamide], the IC50 came out at 107 nM.

Turning to `Cc1cc(C)c2c(N(C(=O)c3ccc(-c4nnc(C)s4)cc3F)[C@@H]3CCCNC3)nccc2c1` [Example 641, (R)—N-(6,8-dimethylisoquinolin-1-yl)-2-fluoro-4-(5-methyl-1,3,4-thiadiazol-2-yl)-N-(piperidin-3-yl)benzamide], the IC50 stood at 56 nM.

On to `Cc1ncnc(C)c1-c1ccc(C(=O)N(c2nccc3cccc(C)c23)[C@@H]2CCCNC2)c(F)c1` [Example 354, 4-(4,6-dimethylpyrimidin-5-yl)-2-fluoro-N-(8-methyl-1-isoquinolyl)-N-[(3R)-3-piperidyl]benzamide], for which the IC50 amounted to 970 nM.

As for `Cc1cccc2ccnc(N(C(=O)c3ccc(Nc4nccc(N(C)C5CCCC5)n4)cc3F)[C@@H]3CCCNC3)c12` [Example 948, 4-({4-[cyclopentyl(methyl)amino]pyrimidin-2-yl}amino)-2-fluoro-N-(8-methylisoquinolin-1-yl)-N-[(3R)-piperidin-3-yl]benzamide], the IC50 came to 150 nM.

Consider `CCc1nnc(-c2ccc(C(=O)N(c3nccc4cc(F)cc(C)c34)[C@@H]3CCCNC3)nc2)s1` [Example 672, (R)-5-(5-ethyl-1,3,4-thiadiazol-2-yl)-N-(6-fluoro-8-methylisoquinolin-1-yl)-N-(piperidin-3-yl)picolinamide], for which the IC50 worked out at 180 nM.

As for `Cc1cccc2ccnc(N(C(=O)c3cccc(C#CCCO)c3)[C@@H]3CCCNC3)c12` [Example 512, (R)-3-(4-hydroxybut-1-yn-1-yl)-N-(8-methylisoquinolin-1-yl)-N-(piperidin-3-yl)benzamide], the IC50 worked out at 1100 nM.

As to `Cc1cccc2ccnc(N(C(=O)c3ccc(-c4cncc(C(N)=O)n4)cc3F)[C@@H]3CCCNC3)c12` [Example 318, (R)-6-(3-fluoro-4-((8-methylisoquinolin-1-yl)(piperidin-3-yl)carbamoyl)phenyl) pyrazine-2-carboxamide], the IC50 is 220 nM.

Consider `CC(C)n1nccc1-c1ccc2c(N(C(=O)c3ccc(-n4nnc5cccnc54)cc3F)[C@@H]3CCCNC3)nccc2c1` [Example 439, (R)-4-(3H-[1,2,3]triazolo[4,5-b]pyridin-3-yl)-2-fluoro-N-(6-(1-isopropyl-1H-pyrazol-5-yl)isoquinolin-1-yl)-N-(piperidin-3-yl)benzamide], for which the IC50 is 1200 nM.

`COc1cc(C)c2c(N(C(=O)c3ccc(-c4cn(C)nn4)cc3F)[C@@H]3CCCNC3)nccc2c1` [Example 619, (R)-2-fluoro-N-(6-methoxy-8-methylisoquinolin-1-yl)-4-(1-methyl-1H-1,2,3-triazol-4-yl)-N-(piperidin-3-yl)benzamide]: the IC50 worked out at 38 nM.

As to `O=C(c1ccc(-n2nnc3cccnc32)cc1F)N(c1nccc2sc(-c3ccc4[nH]ncc4c3)cc12)[C@@H]1CCCNC1` [Example 557, 2-fluoro-N-[2-(1H-indazol-5-yl)thieno[3,2-c]pyridin-4-yl]-N-[(3R)-3-piperidyl]-4-(triazolo[4,5-b]pyridin-3-yl)benzamide], the IC50 came to 130 nM.

With `Cn1cc(-c2ccc(C(=O)N(c3nccc4cc(F)ccc34)[C@@H]3CCCNC3)c(F)c2)nn1` [Example 469, (R)-2-fluoro-N-(6-fluoroisoquinolin-1-yl)-4-(1-methyl-1H-1,2,3-triazol-4-yl)-N-(piperidin-3-yl)benzamide], the IC50 came to 180 nM.

With `Cc1cccc2ccnc(N(C(=O)c3ccc(Nc4nccc(N5CCNCC5)n4)cc3F)[C@@H]3CCCNC3)c12` [Example 718, (R)-2-fluoro-N-(8-methylisoquinolin-1-yl)-4-((4-(piperazin-1-yl)pyrimidin-2-yl)amino)-N-(piperidin-3-yl)benzamide], the IC50 came to 180 nM.

As for `CC(=O)Nc1ccc(-c2cc3c(N(C(=O)c4ccc(-c5cn(C)nn5)cc4F)[C@@H]4CCCNC4)nccc3s2)cc1` [Example 547, (R)—N-(2-(4-acetamidophenyl)thieno[3,2-c]pyridin-4-yl)-2-fluoro-4-(1-methyl-1H-1,2,3-triazol-4-yl)-N-(piperidin-3-yl)benzamide], the IC50 was determined as 480 nM.

As for `Cn1cc(-c2ccc(C(=O)N(c3nccc4c(Cl)csc34)[C@@H]3CCCNC3)c(F)c2)nn1` [Example 678, N-(3-chlorothieno[2,3-c]705yridine-7-yl)-2-fluoro-4-(1-methyltriazol-4-yl)-N-[(3R)-3-piperidyl]benzamide], the IC50 was determined as 350 nM.

As to `Cc1cc(Cl)cc2ccnc(N(C(=O)c3ccc(-c4cn(C)nn4)cn3)[C@@H]3CCCNC3)c12` [Example 812, (R)—N-(6-chloro-8-methylisoquinolin-1-yl)-5-(1-methyl-1H-1,2,3-triazol-4-yl)-N-(piperidin-3-yl)picolinamide], the IC50 was determined as 51 nM.

As to `Cc1ncc(-c2cc(C)c3c(N(C(=O)c4ccc(-c5nnc(C)s5)cc4F)[C@@H]4CCCNC4)nccc3c2)s1` [Example 732, 2-fluoro-N-[8-methyl-6-(2-methylthiazol-5-yl)-1-isoquinolyl]-4-(5-methyl-1,3,4-thiadiazol-2-yl)-N-[(3R)-3-piperidyl]benzamide], the IC50 is 49 nM.

Regarding `Cc1cc(C2=NOC(C)(C)C2=O)ccc1C(=O)N(c1nccc2sc(C#CCO)cc12)[C@@H]1CCCNC1` [Example 737, (R)-4-(5,5-dimethyl-4-oxo-4,5-dihydroisoxazol-3-yl)-N-(2-(3-hydroxyprop-1-yn-1-yl)thieno[3,2-c]pyridin-4-yl)-2-methyl-N-(piperidin-3-yl)benzamide], the IC50 came to 2100 nM.

The term IC50 denotes the midpoint of a concentration-inhibition curve.
